# Laboratory results taken from patent US10906888B2, “Pyrimidine carboxamides as inhibitors of Vanin-1 enzyme” (Pfizer Inc., priority 2016, dated 2021).
# Biological target: human vanin-1 (Homo sapiens (Human), UniProt O95497)
# Test: Human Vanin-1 Enzyme Assay 1
# Type: biochemical
# Conditions: 25 pM human vanin-1, 50 uM pantetheine 7-amino-4-trifluoromethylcoumarin substrate
# Method: Human Vanin-1Enzyme Assay 1.
# The in vitro assay measures enzymatic cleavage of the fluorescently-labeled vanin substrate, pantetheine 7-amino-4-trifluoromethylcoumarin, by human vanin-1.
# The vanin-1 protein was prepared in-house from a construct expressing the extracellular domain of human vanin-1 (GenBank ID NM_004666) preceded N-terminally by the honey bee melittin signal peptide, a GSG linker sequence, a His6× tag and a FLAG tag. The secreted, soluble enzyme was purified from the conditioned medium from a CHO cell line stably expressing the resulting protein. Enzyme purification was performed through sequential Ni NTA and size-exclusion chromatography steps.
# Intermediate concentrations were prepared by diluting in DMSO in a four-fold series for a total of 11 data points.
# To begin the assay 100 nL was transferred from the compound plate to the assay plate. Next, 15 μL of the vanin-1 working solution were transferred to the assay plate. The inhibitor and enzyme were incubated at room temperature for 30 minutes. The enzyme reaction was then initiated by the addition of 5 μL of 200 μM pantetheine 7-amino-4-trifluoromethylcoumarin prepared in assay buffer. […] The final concentration of DMSO was 0.5%.
# human vanin-1, sequence (O95497 22-491): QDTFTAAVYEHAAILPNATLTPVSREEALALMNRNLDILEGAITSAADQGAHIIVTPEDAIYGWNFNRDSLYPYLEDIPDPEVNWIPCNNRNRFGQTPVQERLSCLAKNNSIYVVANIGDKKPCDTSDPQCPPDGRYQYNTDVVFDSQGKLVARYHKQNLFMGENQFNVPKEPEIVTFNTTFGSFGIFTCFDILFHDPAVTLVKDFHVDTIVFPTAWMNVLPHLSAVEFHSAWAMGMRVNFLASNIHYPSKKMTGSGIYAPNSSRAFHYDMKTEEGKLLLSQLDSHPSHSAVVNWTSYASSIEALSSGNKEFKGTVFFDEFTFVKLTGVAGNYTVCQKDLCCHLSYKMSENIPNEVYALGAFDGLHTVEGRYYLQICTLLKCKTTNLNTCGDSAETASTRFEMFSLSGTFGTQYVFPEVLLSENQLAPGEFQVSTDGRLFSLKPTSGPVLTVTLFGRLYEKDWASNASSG
row,Structure (SMILES),IC50
1,CO[C@@H]1CCN(C(=O)c2cnc(NC3(c4cncnc4)CC3)nc2)C1 [Example 79],21.3 nM
2,O=C(c1cnc(NC2(c3cncnc3)CC2)nc1)N1CCCC[C@H]1CCO [Example 80],545 nM
3,O=C(c1cnc(NC2(c3cncnc3)CC2)nc1)N1CCC(C(F)F)CC1 [Example 81],102 nM
4,O=C(c1cnc(NC2(c3cncnc3)CC2)nc1)N1CCCC[C@@H]1CO [Example 82],147 nM
5,CC1(CO)CCN(C(=O)c2cnc(NC3(c4cncnc4)CC3)nc2)CC1 [Example 83],55.1 nM
6,CO[C@@H]1CN(C(=O)c2cnc(NC3(c4cncnc4)CC3)nc2)C[C@H]1F [Example 84],75.4 nM
7,COCC1COCCN(C(=O)c2cnc(NC3(c4cncnc4)CC3)nc2)C1 (stereo not drawn) [Example 85],167 nM
8,C[C@H]1C[C@@H](O)CN(C(=O)c2cnc(NC3(c4cncnc4)CC3)nc2)C1 [Example 86],24.2 nM
9,O=C(c1cnc(NC2(c3cncnc3)CC2)nc1)N1C[C@H](O)C[C@H](C2CC2)C1 [Example 88],28.7 nM
10,O=C(c1cnc(NC2(c3cncnc3)CC2)nc1)N1C[C@H](O)C[C@H](C(F)(F)F)C1 [Example 89],35 nM
11,O=C(c1cnc(NC2(c3cncnc3)CC2)nc1)N1CCC(O)(C(F)(F)F)CC1 [Example 90],348 nM
12,COC1CCOC2(CCN(C(=O)c3cnc(NC4(c5cncnc5)CC4)nc3)CC2)C1 (stereo not drawn) [Example 91],316 nM
13,CCOCC1(F)CCN(C(=O)c2cnc(NC3(c4cncnc4)CC3)nc2)CC1 [Example 92],50.9 nM
14,O=C(c1cnc(NC2(c3cncnc3)CC2)nc1)N1CCCC(F)C1 (stereo not drawn) [Example 93],40.5 nM
15,O=C(c1cnc(NC2(c3cncnc3)CC2)nc1)N1CCC(O)C(C(F)(F)F)C1 (stereo not drawn) [Example 94],20.4 nM
16,CCC1(CO)CCN(C(=O)c2cnc(NC3(c4cncnc4)CC3)nc2)CC1 [Example 95],30.1 nM
17,O=C(c1cnc(NC2(c3cncnc3)CC2)nc1)N1C2CCC1COC2 [Example 97],345 nM
18,O=C(c1cnc(NC2(c3cncnc3)CC2)nc1)N1CCC(F)(F)CC1 [Example 98],5.66 nM
19,C[C@@H]1CN(C(=O)c2cnc(NC3(c4cncnc4)CC3)nc2)CCO1 [Example 99],591 nM
20,O=C(c1cnc(NC2(c3cncnc3)CC2)nc1)N1CCCC2(CCCC[C@H]2O)C1 (stereo partly drawn) [Example 100],135 nM
21,O=C(c1cnc(NC2(c3cncnc3)CC2)nc1)N1CCC(C2(O)CCCC2)CC1 [Example 101],1360 nM

row,Structure (SMILES),IC50
1,O=C(c1cnc(NC2(c3cncnc3)CC2)nc1)N1CC2(CC(O)C2)C1 [Example 102],40.8 nM
2,C[C@@H]1COCCN1C(=O)c1cnc(NC2(c3cncnc3)CC2)nc1 [Example 103],590 nM
3,CCOC1CCCN(C(=O)c2cnc(NC3(c4cncnc4)CC3)nc2)C1 (stereo not drawn) [Example 104],2.45 nM
4,O=C(c1cnc(NC2(c3cncnc3)CC2)nc1)N1CC2CCC1CO2 (stereo not drawn) [Example 105],36 nM
5,O=C(c1cnc(NC2(c3cncnc3)CC2)nc1)N1CCCC(CO)C1 (stereo not drawn) [Example 106],30.8 nM
6,C[C@H]1CN(C(=O)c2cnc(NC3(c4cncnc4)CC3)nc2)CCO1 [Example 107],38.6 nM
7,O=C(c1cnc(NC2(c3cncnc3)CC2)nc1)N1CCOCC1 [Example 109],249 nM
8,O=C(c1cnc(NCc2cnccn2)nc1)N1CCN2C[C@@H](F)C[C@H]2C1 [Example 110],171 nM
9,O=C(c1cnc(NCc2cnccn2)nc1)N1CCN2C[C@H](O)C[C@H]2C1 [Example 111],3590 nM
10,CN1C[C@@H]2C[C@H]1CN2C(=O)c1cnc(NCc2cnccn2)nc1 [Example 112],> 18900 nM
11,C[C@H](Nc1ncc(C(=O)N2C[C@H](O)[C@@H](N3CCOCC3)C2)cn1)c1cnccn1 [Example 113],508 nM
12,C[C@H](Nc1ncc(C(=O)N2CCN3CCC[C@@H]3C2)cn1)c1cnccn1 [Example 114],20.9 nM
13,O=C(c1cnc(NCc2cnccn2)nc1)N1C[C@H](O)[C@@H](N2CCOCC2)C1 [Example 115],16000 nM
14,O=C(c1cnc(NCc2cnccn2)nc1)N1CCN2CC(F)(F)C[C@H]2C1 [Example 116],113 nM
15,CCN1CCC2(CCN(C(=O)c3cnc(N[C@@H](C)c4cnccn4)nc3)C2)C1 (stereo partly drawn) [Example 117],5.11 nM
16,C[C@H](Nc1ncc(C(=O)N2CCN3CC(F)(F)C[C@H]3C2)cn1)c1cnccn1 [Example 118],4.64 nM
17,CN1CC2(CCN(C(=O)c3cnc(NCc4cnccn4)nc3)C2)C1 [Example 119],1370 nM
18,C[C@H](Nc1ncc(C(=O)N2CC[C@@H](N3CCOCC3)C2)cn1)c1cnccn1 [Example 120],84.1 nM
19,C[C@H](Nc1ncc(C(=O)N2CCN3C[C@@H](F)C[C@H]3C2)cn1)c1cnccn1 [Example 121],3.95 nM
20,C[C@H](Nc1ncc(C(=O)N2CCC3(CN(C)C3)C2)cn1)c1cnccn1 [Example 122],43.9 nM
21,CN1CC2CN(C(=O)c3cnc(NCc4cnccn4)nc3)CC2C1 (stereo not drawn) [Example 123],11400 nM

row,Structure (SMILES),IC50
1,O=C(c1cnc(NCc2cnccn2)nc1)N1CC[C@@H](N2CCOCC2)C1 [Example 124],4620 nM
2,C[C@H](Nc1ncc(C(=O)N2CCN3CCC[C@H]3C2)cn1)c1cnccn1 [Example 125],3.04 nM
3,C[C@H](Nc1ncc(C(=O)N2CC3CN(C)CC3C2)cn1)c1cnccn1 (stereo partly drawn) [Example 127],587 nM
4,O=C(c1cnc(NCc2cnccn2)nc1)N1CCN2CCC[C@@H]2C1 [Example 128],384 nM
5,O=C(c1cnc(NCc2cnccn2)nc1)N1CCN2CCC[C@H]2C1 [Example 129],65.9 nM
6,O=C(c1cnc(NC2(c3cnccn3)COC2)nc1)N1CCC2(CCOCC2)C1 [Example 132],0.349 nM
7,O=C(c1cnc(NC2(c3cncnc3)COC2)nc1)N1CC2(CCOCC2)C1 [Example 134],0.504 nM
8,Cc1nc(NC2(c3cncnc3)CC2)ncc1C(=O)N1CCC2(CCOCC2)C1 [Example 136],2330 nM
9,O=C(c1cnc(NC2(c3cnccn3)CCC2)nc1)N1CC2(CCOCC2)C1 [Example 138],0.043 nM
10,Cc1nc(NCc2cnccn2)ncc1C(=O)N1CCC2(CCOCC2)C1 [Example 139],> 17600 nM
11,Cc1ccc([C@@H](C)Nc2ncc(C(=O)N3CCC4(CCOCC4)C3)cn2)cn1 [Example 141],87.3 nM
12,CC(C)(Nc1ncc(C(=O)N2CC3(CCOCC3)C2)cn1)c1cncnc1 [Example 144],0.743 nM
13,C[C@@H](Nc1ncc(C(=O)N2CC3(CCOCC3)C2)cn1)c1cnccn1 [Example 148],54.5 nM
14,C[C@H](Nc1ncc(C(=O)N2CC3(CCOCC3)C2)cn1)c1cncnc1 [Example 151],0.955 nM
15,C[C@@H](Nc1ncc(C(=O)N2CC3(CCOCC3)C2)cn1)c1cncnc1 [Example 152],91.3 nM
16,C[C@H](Nc1ncc(C(=O)N2CCC3(CCOCC3)C2)cn1)c1ccnnc1 [Example 153],4.29 nM
17,C[C@@H](Nc1ncc(C(=O)N2CCC3(CCOCC3)C2)cn1)c1ccnnc1 [Example 154],337 nM
18,C[C@@H](Nc1ncc(C(=O)N2CCC3(CCOCC3)C2)cn1)c1ccncn1 [Example 156],838 nM
19,Cc1ncc(C(C)Nc2ncc(C(=O)N3CCC4(CCOCC4)C3)cn2)cn1 (stereo not drawn) [Example 159],1.29 nM
20,Cc1ncc(C(C)Nc2ncc(C(=O)N3CC4(CCOCC4)C3)cn2)cn1 (stereo not drawn) [Example 160],2.84 nM
21,Cc1ccc(C(C)Nc2ncc(C(=O)N3CCC4(CCOCC4)C3)cn2)nc1 (stereo not drawn) [Example 161],8.06 nM

row,Structure (SMILES),IC50
1,Cc1ccc(C(C)Nc2ncc(C(=O)N3CC4(CCOCC4)C3)cn2)cn1 (stereo not drawn) [Example 163],1.77 nM
2,Cc1cnc(CNc2ncc(C(=O)N3CCC4(CCOCC4)C3)cn2)cn1 [Example 164],27.3 nM
3,Cc1cnc(CNc2ncc(C(=O)N3CC4(CCOCC4)C3)cn2)cn1 [Example 165],26.3 nM
4,O=C(c1cnc(NCc2cncnc2C(F)(F)F)nc1)N1CC2(CCOCC2)C1 [Example 167],57.7 nM
5,O=C(c1cnc(NCc2cnc(C(F)(F)F)nc2)nc1)N1CCC2(CCOCC2)C1 [Example 168],192 nM
6,O=C(c1cnc(NCc2cnc(C(F)(F)F)nc2)nc1)N1CC2(CCOCC2)C1 [Example 169],158 nM
7,Cc1ncc(CNc2ncc(C(=O)N3CC4(CCOCC4)C3)cn2)cn1 [Example 171],7.33 nM
8,Cc1ccc(C2(Nc3ncc(C(=O)N4CCC5(CCOCC5)C4)cn3)CC2)cn1 [Example 175],0.24 nM
9,Cc1ccc(C2(Nc3ncc(C(=O)N4CC5(CCOCC5)C4)cn3)CC2)cn1 [Example 176],0.911 nM
10,O=C(c1cnc(NC2(c3ccccn3)CC2)nc1)N1CCC2(CCOCC2)C1 [Example 177],0.551 nM
11,O=C(c1cnc(NC2(c3ncccn3)CC2)nc1)N1CCC2(CCOCC2)C1 [Example 178],2.18 nM
12,Cc1cnc(C(C)(C)Nc2ncc(C(=O)N3CC4(CCOCC4)C3)cn2)cn1 [Example 180],0.196 nM
13,O=C(c1cnc(NCCc2cncnc2)nc1)N1CCC2(CCOCC2)C1 [Example 181],200 nM
14,CC(Nc1ncc(C(=O)N2CCC3(CCOCC3)C2)cn1)c1cncnc1 (stereo not drawn) [Example 183],0.745 nM
15,O=C(c1cnc(NCc2cncnc2)nc1)N1CCC2(CCOCC2)C1 [Example 185],7.71 nM
16,O=C(c1cnc(NCc2cncnc2)nc1)N1CCCCC1 [Example 187],83.7 nM
17,O=C(c1cnc(NC2(c3cncnc3)CC2)nc1)N1CC2(CCOCC2)C1 [Example 189],0.867 nM
18,CC1(C)CCN(C(=O)c2cnc(NC3(c4cncnc4)CC3)nc2)C1 [Example 191],1.57 nM
